Reference: PMC11845477, “Exploring the principles behind antibiotics with limited resistance” (Nature Communications, 2025)

System: K. pneumoniae ATCC 10031 (SEN) and K. pneumoniae ATCC 700603 (MDR)
Test: Adaptive laboratory evolution (ALE), relative MIC of evolved lines
Assay type: cell-based, Klebsiella pneumoniae
From the text: Using the same set of bacterial strains, we initiated adaptive laboratory evolution with the aim to maximize the level of antibiotic resistance in the populations achieved during a longer, but fixed time period.
An established protocol for adaptive laboratory evolution[46],[73] was followed to propagate populations with the highest resistance levels. Starting with an antibiotic concentration that caused approximately 50% growth inhibition, ten parallel populations for each antibiotic-ancestor strain combination were grown for 72 hours at 37 °C with continuous shaking (300 RPM). MHB broth medium was used unless stated otherwise. After each incubation, 20 µl of each culture was transferred to four new wells containing fresh medium with increasing antibiotic concentrations (0.5×, 1×, 1.5×, and 2.5× the previous concentration) in a chessboard layout to monitor potential cross-contamination. Growth was monitored by measuring OD600 using a Biotek Synergy 2 microplate reader, and only populations grown in the highest drug concentration with an OD600 > 0.2 were transferred further.
A robotic liquid handling system was used to automatically prepare a 11 to 16-step serial dilution in 384-well microtiter plates (Greiner). A final concentration of 5 × 10^5 bacterial cells per mL were inoculated into each well containing 60 µL MHB medium. Bacterial cultures were incubated at 37 °C with continuous shaking (Infors shaker, 900 rpm with 3 mm throw) for 18 hours (2 replicates from each). Cell growth was monitored by measuring the optical density (OD600 values, using Biotek Synergy microplate reader). MIC was defined as the antibiotic concentration of complete growth inhibition (i.e., OD600 < 0.05). Relative MIC was calculated as follows:1 relativeMIC=MICevolved/MICancestor […]
Supplementary Figure 4. Resistance levels following adaptive laboratory evolution across bacterial strains. The level of resistance was measured as the fold change in relative MIC between evolved and ancestral strains after ~60 days of adaptive laboratory evolution. Data are grouped by bacterial strain (A. baumannii (AB), E. coli (EC), K. pneumoniae (KP), and P. aeruginosa (PA)) and categorized as either multidrug-resistant (MDR) or sensitive (SEN). Each data point represents a laboratory evolved line, and boxplots show the median, first and third quartiles, with whiskers indicating the 5th and 95th percentiles.
Statistical analysis was performed using two-sided Dunn’s post-hoc test with Benjamini-Hochberg correction for multiple comparisons (****/ ***/ **/ * indicates p < 0.0001/ 0.001/ 0.01/ 0.05). For detailed information on antibiotic and bacterial species, see Supplementary Table 1. For mode of action groups, refer to Table 1. Source data are provided as a Source Data file.

CN[C@@H]1[C@@H](O[C@H]2O[C@H](CO)[C@@H](N)[C@H](O)[C@H]2O)OC2C[C@@H](N)[C@@H](O[C@H]3[C@H](O)[C@@H](O)[C@H](N)C[C@@H]3N)OC2[C@@H]1O (some centres unmarked) [Apramycin]
Relative MIC (KP-MDR (ATCC 700603), evolved line 1, MIC of evolved line / MIC of ancestor): 8 | Relative MIC (KP-MDR (ATCC 700603), evolved line 2, MIC of evolved line / MIC of ancestor): 16 | Relative MIC (KP-MDR (ATCC 700603), evolved line 3, MIC of evolved line / MIC of ancestor): 16 | Relative MIC (KP-MDR (ATCC 700603), evolved line 4, MIC of evolved line / MIC of ancestor): 4 | Relative MIC (KP-MDR (ATCC 700603), evolved line 5, MIC of evolved line / MIC of ancestor): 16 | Relative MIC (KP-MDR (ATCC 700603), evolved line 6, MIC of evolved line / MIC of ancestor): 8 | Relative MIC (KP-MDR (ATCC 700603), evolved line 7, MIC of evolved line / MIC of ancestor): 4 | Relative MIC (KP-MDR (ATCC 700603), evolved line 8, MIC of evolved line / MIC of ancestor): 8 | Relative MIC (KP-MDR (ATCC 700603), evolved line 9, MIC of evolved line / MIC of ancestor): 16 | Relative MIC (KP-MDR (ATCC 700603), evolved line 10, MIC of evolved line / MIC of ancestor): 8 | Relative MIC (log10) (KP-MDR (Klebsiella pneumoniae ATCC 700603), evolved line 1 adapted to the named antibiotic): 0.9031 | Relative MIC (log10) (KP-MDR (Klebsiella pneumoniae ATCC 700603), evolved line 2 adapted to the named antibiotic): 1.204 | Relative MIC (log10) (KP-MDR (Klebsiella pneumoniae ATCC 700603), evolved line 3 adapted to the named antibiotic): 1.204 | Relative MIC (log10) (KP-MDR (Klebsiella pneumoniae ATCC 700603), evolved line 8 adapted to the named antibiotic): 0.9031 | Relative MIC (log10) (KP-MDR (Klebsiella pneumoniae ATCC 700603), evolved line 9 adapted to the named antibiotic): 1.204 | Relative MIC (KP-SEN (ATCC 10031), evolved line 2, MIC of evolved line / MIC of ancestor): 64 | Relative MIC (KP-SEN (ATCC 10031), evolved line 3, MIC of evolved line / MIC of ancestor): 32 | Relative MIC (KP-SEN (ATCC 10031), evolved line 5, MIC of evolved line / MIC of ancestor): 64 | Relative MIC (KP-SEN (ATCC 10031), evolved line 6, MIC of evolved line / MIC of ancestor): 64 | Relative MIC (KP-SEN (ATCC 10031), evolved line 8, MIC of evolved line / MIC of ancestor): 64 | Relative MIC (KP-SEN (ATCC 10031), evolved line 9, MIC of evolved line / MIC of ancestor): 64 | Relative MIC (KP-SEN (ATCC 10031), evolved line 10, MIC of evolved line / MIC of ancestor): 128 | Relative MIC (log10) (KP-SEN (Klebsiella pneumoniae ATCC 10031), evolved line 2 adapted to the named antibiotic): 1.806 | Relative MIC (log10) (KP-SEN (Klebsiella pneumoniae ATCC 10031), evolved line 5 adapted to the named antibiotic): 1.806 | Relative MIC (log10) (KP-SEN (Klebsiella pneumoniae ATCC 10031), evolved line 6 adapted to the named antibiotic): 1.806 | Relative MIC (log10) (KP-SEN (Klebsiella pneumoniae ATCC 10031), evolved line 8 adapted to the named antibiotic): 1.806 | Relative MIC (log10) (KP-SEN (Klebsiella pneumoniae ATCC 10031), evolved line 10 adapted to the named antibiotic): 2.107 | Relative MIC (Klebsiella pneumoniae ATCC 10031 (KP-SEN), evolved line 2): 64 | Relative MIC (Klebsiella pneumoniae ATCC 10031 (KP-SEN), evolved line 3): 32 | Relative MIC (Klebsiella pneumoniae ATCC 10031 (KP-SEN), evolved line 5): 64 | Relative MIC (Klebsiella pneumoniae ATCC 10031 (KP-SEN), evolved line 6): 64 | Relative MIC (Klebsiella pneumoniae ATCC 10031 (KP-SEN), evolved line 8): 64 | Relative MIC (Klebsiella pneumoniae ATCC 10031 (KP-SEN), evolved line 9): 64 | Relative MIC (Klebsiella pneumoniae ATCC 10031 (KP-SEN), evolved line 10): 128 | Relative MIC (Klebsiella pneumoniae ATCC 700603 (KP-MDR), evolved line 1): 8 | Relative MIC (Klebsiella pneumoniae ATCC 700603 (KP-MDR), evolved line 2): 16 | Relative MIC (Klebsiella pneumoniae ATCC 700603 (KP-MDR), evolved line 3): 16 | Relative MIC (Klebsiella pneumoniae ATCC 700603 (KP-MDR), evolved line 4): 4 | Relative MIC (Klebsiella pneumoniae ATCC 700603 (KP-MDR), evolved line 5): 16 | Relative MIC (Klebsiella pneumoniae ATCC 700603 (KP-MDR), evolved line 6): 8 | Relative MIC (Klebsiella pneumoniae ATCC 700603 (KP-MDR), evolved line 7): 4 | Relative MIC (Klebsiella pneumoniae ATCC 700603 (KP-MDR), evolved line 8): 8 | Relative MIC (Klebsiella pneumoniae ATCC 700603 (KP-MDR), evolved line 9): 16 | Relative MIC (Klebsiella pneumoniae ATCC 700603 (KP-MDR), evolved line 10): 8
